Measurements: patent US20040002425A1, “Triketone derivatives and herbicides” (Idemitsu Kosan Co., Ltd., priority 1998, published 2004)

Test system: Transplanted paddy rice plant
Assay: Biological Test 1 (treatment on the 3rd day after transplantation): chemical injury to paddy rice
Format: in vivo
Set-up: scale not given here
Conditions: Treatment performed 3 days after transplantation
Description: (1) Preparation of Herbicide
Talc (57 parts by weight) and bentonite (40 parts by weight), both serving as carriers, and sodium alkylbenzenesulfate (3 parts by weight) serving as a surfactant were homogeneously ground and mixed to thereby obtain a carrier for water-dispersible powder.
Subsequently, to the water-dispersible powder (90 parts by weight), the triketone derivative (compound No. A-1) produced in Example I-1 (10 parts by weight) was added, and the resultant mixture was homogeneously ground and mixed to thereby obtain a herbicide.
(i) Biological Test 1 (Soaking in Water/Treatment on the 3rd Day After Transplantation)
A Wagner pot (1/2000 are) was filled with paddy soil, and seeds of barnyard grass were planted on the surface layer of the soil, and further, rice seedlings grown to the 2.5-leaf stage were transplanted.
Subsequently, water was poured in the pot to a height of 3 cm above the soil surface, and placed in a greenhouse where the temperature was maintained at 20-25° C., to thereby grow the plant under suitable conditions.
On the 3rd day after transplantation, the herbicide prepared in (1) above was applied to the plant in a predetermined amount. On the 30th day after treatment with the herbicide, weed-killing ratio, herbicidal effect, and extent of chemical injury to paddy rice were examined.
In Biological tests 1 and 2, herbicidal effect and extent of chemical injury were evaluated according to the below-described standards.
3) Chemical Injury to Paddy Rice
Chemical injury to paddy rice was evaluated according to the following criteria.

[1] = dose 100 g/ha, examined on the 30th day after treatment
[2] = dose 200 g/ha, examined on the 30th day after treatment

SMILES | Chemical injury, Transplanted paddy rice plant (dose 100 g/ha) | Chemical injury, Transplanted paddy rice plant (dose 200 g/ha) | Chemical injury, Transplanted paddy rice plant [1] | Chemical injury, Transplanted paddy rice plant [2]
CC(C)c1ccccc1SC1=C(C(=O)c2ccc3c(c2Cl)CCS3(=O)=O)C(=O)CCC1 [B-18] | 0 | 0 | – | –
COc1ccc(S(=O)(=O)C2=C(C(=O)c3ccc4c(c3Cl)CCS4(=O)=O)C(=O)CCC2)cc1 [B-37] | 0 | 0 | – | –
O=C1CCCC([O-])=C1C(=O)c1ccc2c(c1Cl)CCS2(=O)=O.[Na+] [A-19, Sodium Salt of 4-chloro-5-(1,3-dioxocyclohexan-2-yl)carbonyl-2,3-dihydrobenzothiophene-1,1-dioxide] | – | – | 0 | 1
Cc1cc(C(=O)C2=C(Cl)CCCC2=O)c(C)c2c1S(=O)(=O)CCC2OC(C)C (centres unmarked) [B-66] | 0 | 4 | – | –
Cc1c(C(=O)C2=C(Cl)CCCC2=O)ccc2c1CCS2(=O)=O [B-47] | 0 | 0 | – | –
CO/N=C1\CCS(=O)(=O)c2ccc(C(=O)C3=C(S(=O)(=O)c4ccccc4)CCCC3=O)c(C)c21 [B-75] | 0 | 1 | – | –
CCCCS(=O)(=O)C1=C(C(=O)c2ccc3c(c2Cl)CCS3(=O)=O)C(=O)CCC1 [B-30] | 0 | 0 | – | –
CSC1=C(C(=O)c2ccc3c(c2Cl)CCCS3(=O)=O)C(=O)CCC1 [B-79] | 0 | 0 | – | –
CSc1c(C(=O)C2=C(O)CCCC2=O)ccc2c1CCS2(=O)=O [A-6, 4-methylthio-5-(1,3-dioxocyclohexan-2-yl)carbonyl-2,3-dihydrobenzothiophene-1,1-dioxide] | – | – | 1 | 3
Cc1ccc(SC2=C(C(=O)c3ccc4c(c3Cl)CCS4(=O)=O)C(=O)CCC2)cc1 [B-14, 4-chloro-5-[3-(4-methylphenyl)thio-1-oxocyclohexan-2-yl]carbonyl-2,3-dihydrobenzothiophene-1,1-dioxide] | 0 | 0 | – | –
CC1CC(=O)C(C(=O)c2ccc3c(c2Cl)CCS3(=O)=O)=C(Sc2ccccc2)C1 (centres unmarked) [B-26] | 0 | 0 | – | –
CO/N=C1\CCS(=O)(=O)c2c(C)cc(C(=O)C3=C(N(C)C)CCCC3=O)c(C)c21 [B-55, 4-methoxyimino-5,8-dimethyl-6-(3-dimethylamino-1-oxocyclohexan-2-yl)carbonylthiochroman-1,1-1,1-dioxide] | 0 | 0 | – | –
CO/N=C1\CCS(=O)(=O)c2ccc(C(=O)C3=C(N(C)OC)CCCC3=O)c(C)c21 [B-76, 4-methoxyimino-5-methyl-6-[3-(N-methoxymethyl)amino-1-oxocyclohexan-2-yl]carbonylthiochroman-1,1-dioxide] | 0 | 1 | – | –
Cc1cc(C(=O)C2=C(O)CCCC2=O)c(C)c2c1S(=O)(=O)C(C)C2 (centres unmarked) [Comparative Example I-4, reference compound] | – | – | 2 | 4
O=C1CCCC(S(=O)(=O)c2ccccc2Cl)=C1C(=O)c1ccc2c(c1Cl)CCS2(=O)=O [B-35] | 0 | 0 | – | –
COc1ccc(SC2=C(C(=O)c3ccc4c(c3Cl)CCS4(=O)=O)C(=O)CCC2)cc1 [B-20] | 0 | 0 | – | –

SMILES | Chemical injury, Transplanted paddy rice plant (dose 100 g/ha) | Chemical injury, Transplanted paddy rice plant (dose 200 g/ha) | Chemical injury, Transplanted paddy rice plant [1] | Chemical injury, Transplanted paddy rice plant [2]
CC(C)SC1=C(C(=O)c2ccc3c(c2Cl)CCS3(=O)=O)C(=O)CCC1 [B-9] | 0 | 0 | – | –
O=C1CCCC(Sc2ccccc2)=C1C(=O)c1ccc2c(c1Cl)CCS2(=O)=O [B-3] | 0 | 0 | – | –
CON(C)C1=C(C(=O)c2ccc3c(c2Cl)CCS3(=O)=O)C(=O)CCC1 [B-12, 4-chloro-5-[3-(N-methoxymethyl)amino-1-oxocyclohexan-2-yl]carbonyl-2,3-dihydrobenzothiophene-1,1-dioxide] | 0 | 1 | – | –
O=C1CCCC(=O)C1C(=O)c1ccc2c(c1Br)CCS2(=O)=O [A-20, 4-bromo-5-(1,3-dioxocyclohexan-2-yl)carbonyl-2,3-dihydrobenzothiophene-1,1-dioxide] | – | – | 0 | 0
Cc1cc(C(=O)C2=C(O)CC(C)(C)CC2=O)c(Cl)c2c1S(=O)(=O)CC2 [A-10, 4-chloro-7-methyl-5-(5,5-dimethyl-1,3-dioxocyclohexan-2-yl)carbonyl-2,3-dihydrobenzothiophene-1,1-dioxide] | – | – | 1 | 3
Cc1cc(C(=O)C2=C(Sc3ccccc3)CCCC2=O)c(Cl)c2c1S(=O)(=O)CC2 [B-5] | 0 | 0 | – | –
Cc1cc(C(=O)C2=C(Sc3ccccc3)CCCC2=O)c(C)c2c1S(=O)(=O)CCC2OC(C)C (centres unmarked) [B-68, 4-(2-propyl)oxy-5,8-dimethyl-6-(3-phenylthio-1-oxocyclohexan-2-yl)carbonylthiochroman-1,1-dioxide] | 0 | 0 | – | –
CSC1=C(C(=O)c2cc(C)c3c(c2C)C(OC(C)C)CCS3(=O)=O)C(=O)CCC1 (centres unmarked) [B-67] | 0 | 1 | – | –
CC(=O)c1ccc(S(=O)(=O)C2=C(C(=O)c3ccc4c(c3Cl)CCS4(=O)=O)C(=O)CCC2)cc1 [B-46] | 0 | 0 | – | –
CCCCSC1=C(C(=O)c2ccc3c(c2Cl)CCS3(=O)=O)C(=O)CCC1 [B-10] | 0 | 0 | – | –
Cc1ccccc1SC1=C(C(=O)c2ccc3c(c2Cl)CCS3(=O)=O)C(=O)CCC1 [B-16] | 0 | 0 | – | –
CC1CC(C)C(O)=C(C(=O)c2ccc3c(c2Cl)CCS3(=O)=O)C1=O (centres unmarked) [A-14, 4-chloro-5-(4,6-dimethyl-1,3-dioxocyclohexan-2-yl)carbonyl-2,3-dihydrobenzothiophene-1,1-dioxide] | – | – | 1 | 2
COc1c(C(=O)C2=C(O)CCCC2=O)ccc2c1CCS2(=O)=O [A-5, 4-methoxy-5-(1,3-dioxocyclohexan-2-yl)carbonyl-2,3-dihydrobenzothiophene-1,1-dioxide] | – | – | 0 | 0
CO/N=C1\CCS(=O)(=O)c2c(C)cc(C(=O)C3=C(N(C)OC)CCCC3=O)c(C)c21 [B-57, 4-methoxyimino-5,8-dimethyl-6-[3-(N-methoxymethyl)amino-1-oxocyclohexan-2-yl]carbonylthiochroman-1,1-1,1-dioxide] | 0 | 3 | – | –
CO/N=C1\CCS(=O)(=O)c2ccc(C(=O)C3=C(Cl)CCCC3=O)c(C)c21 [B-72] | 0 | 0 | – | –
